33 compounds from ChEMBL document CHEMBL1158602, “Dihydro-pyrano[2,3-b]pyridines and tetrahydro-1,8-naphthyridines as CB1 receptor inverse agonists: synthesis, SAR and biological evaluation” (Bioorg Med Chem Lett, 2010) can be followed below.

One assay has as its target Cannabinoid receptor 1 (Homo sapiens, UniProt P21554). Kind of assay: Binding affinity to human CB1 receptor.
The target of the next assay is Cannabinoid receptor 2 (Homo sapiens, UniProt P34972). Kind of assay: Binding affinity to human CB2 receptor.
Sequence of Cannabinoid receptor 2 (P34972 whole entry): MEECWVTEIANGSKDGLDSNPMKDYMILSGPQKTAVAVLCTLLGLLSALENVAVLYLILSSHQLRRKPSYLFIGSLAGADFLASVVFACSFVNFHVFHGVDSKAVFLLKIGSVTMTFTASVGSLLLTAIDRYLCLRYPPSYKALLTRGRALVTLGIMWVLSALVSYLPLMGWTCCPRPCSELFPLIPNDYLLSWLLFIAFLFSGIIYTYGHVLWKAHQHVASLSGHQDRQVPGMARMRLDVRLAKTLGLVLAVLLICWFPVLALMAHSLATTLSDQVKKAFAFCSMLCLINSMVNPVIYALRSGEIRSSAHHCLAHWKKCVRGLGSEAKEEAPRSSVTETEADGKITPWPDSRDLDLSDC

Sequence of Cannabinoid receptor 1 (P21554 whole entry): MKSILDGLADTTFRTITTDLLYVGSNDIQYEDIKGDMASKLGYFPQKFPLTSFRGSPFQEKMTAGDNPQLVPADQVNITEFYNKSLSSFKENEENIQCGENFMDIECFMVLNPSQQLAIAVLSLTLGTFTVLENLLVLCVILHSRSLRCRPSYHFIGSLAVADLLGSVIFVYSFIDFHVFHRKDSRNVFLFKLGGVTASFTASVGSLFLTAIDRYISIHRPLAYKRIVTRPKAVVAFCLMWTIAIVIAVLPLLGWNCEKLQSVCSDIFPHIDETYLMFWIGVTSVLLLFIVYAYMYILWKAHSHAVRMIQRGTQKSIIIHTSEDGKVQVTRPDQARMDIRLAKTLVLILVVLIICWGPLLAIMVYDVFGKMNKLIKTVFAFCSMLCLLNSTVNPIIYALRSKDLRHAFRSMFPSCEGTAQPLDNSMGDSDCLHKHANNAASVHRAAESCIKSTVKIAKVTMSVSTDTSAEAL

Consider `O=C1CC2(CCS(=O)(=O)CC2)Oc2nc(-c3ccccc3Cl)c(-c3ccc(Cl)cc3)cc21`, for which the values for the IC50 on Cannabinoid receptor 1 and on Cannabinoid receptor 2 were 15 nM and 4100 nM, respectively.
The like results for `CC1(C)CC(NC(=O)CO)c2cc(-c3ccc(Cl)cc3)c(-c3ccccc3Cl)nc2O1` (single isomer, unassigned) [N-(7-(2-CHLOROPHENYL)-6-(4-CHLOROPHENYL)-2,2-DIMETHYL-3,4-DIHYDRO-2H-PYRANO[2,3-B]PYRIDIN-4-YL)-2-HYDROXYACETAMIDE (ENANTIOMERIC MIX)] were, in that order, 360 nM and 10100 nM.
The like results for `CC1(C)CC(NC(=O)CCO)c2cc(-c3ccc(Cl)cc3)c(-c3ccc(Cl)cc3Cl)nc2O1` (single isomer, unassigned; enantiomer 2) [N-(6-(4-CHLOROPHENYL)-7-(2,4-DICHLOROPHENYL)-2,2-DIMETHYL-3,4-DIHYDRO-2H-PYRANO[2,3-B]PYRIDIN-4-YL)-3-HYDROXYPROPANAMIDE (ENANTIOMERIC MIX)] were, in that order, 14 nM and 5400 nM.
For `CC1(C)CC(C(N)=O)c2cc(-c3ccc(Cl)cc3)c(-c3ccc(Cl)cc3Cl)nc2O1` (single isomer, unassigned; enantiomer 2) [6-(4-CHLOROPHENYL)-7-(2,4-DICHLOROPHENYL)-2,2-DIMETHYL-3,4-DIHYDRO-2H-PYRANO[2,3-B]PYRIDINE-4-CARBOXAMIDE (ENANTIOMERIC MIX)] the same measures were 220 nM and above 2000 nM.
With `CN1CCC2(CC1)CC(=O)c1cc(-c3ccc(Cl)cc3)c(-c3ccccc3Cl)nc1O2`, the figures for the IC50 at Cannabinoid receptor 1 and on Cannabinoid receptor 2 were 790 nM and above 2000 nM, respectively.
For the compound `CC(C)(C)C1CC(=O)c2cc(-c3ccc(Cl)cc3)c(-c3ccccc3Cl)nc2O1` (racemic), the IC50 on Cannabinoid receptor 1 came out at 1.9 nM; at Cannabinoid receptor 2, 3400 nM.
With `C[C@@H](O)C(=O)NC1CC2(CCCCC2)Oc2nc(-c3ccccc3Cl)c(-c3ccc(Cl)cc3)cc21` (single isomer, unassigned; enantiomer 1), the IC50 on Cannabinoid receptor 1 stood at 0.2 nM; on Cannabinoid receptor 2 it was 3600 nM.
For the compound `CC1(C)CC(NC(=O)C(C)(C)CO)c2cc(-c3ccc(Cl)cc3)c(-c3ccc(Cl)cc3Cl)nc2O1` (single isomer, unassigned; enantiomer 2) [N-(6-(4-CHLOROPHENYL)-7-(2,4-DICHLOROPHENYL)-2,2-DIMETHYL-3,4-DIHYDRO-2H-PYRANO[2,3-B]PYRIDIN-4-YL)-3-HYDROXY-2,2-DIMETHYLPROPANAMIDE (ENANTIOMERIC MIX)], the IC50 worked out at 34 nM at Cannabinoid receptor 1 and 7600 nM on Cannabinoid receptor 2.
The like results for `O=C1CC(c2cccc(F)c2)Oc2nc(-c3ccccc3Cl)c(-c3ccc(Cl)cc3)cc21` (racemic) were, in that order, 1.7 nM and above 2000 nM.
For `CC1(C)CC(NC(=O)CO)c2cc(-c3ccc(Cl)cc3)c(-c3ccc(Cl)cc3Cl)nc2O1` (single isomer, unassigned; enantiomer 1) [N-(6-(4-CHLOROPHENYL)-7-(2,4-DICHLOROPHENYL)-2,2-DIMETHYL-3,4-DIHYDRO-2H-PYRANO[2,3-B]PYRIDIN-4-YL)-2-HYDROXYACETAMIDE (ENANTIOMERIC MIX)] the same measures were 1.7 nM and 4780 nM.
The like results for `CC1(C)CC(NC(=O)CO)c2cc(-c3ccc(Cl)cc3)c(-c3ccc(Cl)cc3Cl)nc2O1` (single isomer, unassigned; enantiomer 2) [N-(6-(4-CHLOROPHENYL)-7-(2,4-DICHLOROPHENYL)-2,2-DIMETHYL-3,4-DIHYDRO-2H-PYRANO[2,3-B]PYRIDIN-4-YL)-2-HYDROXYACETAMIDE (ENANTIOMERIC MIX)] were, in that order, 670 nM and 6610 nM.
Take `CC(C)(CO)NC(=O)C1CC(C)(C)Oc2nc(-c3ccc(Cl)cc3Cl)c(-c3ccc(Cl)cc3)cc21` (single isomer, unassigned; enantiomer 1) [6-(4-CHLOROPHENYL)-7-(2,4-DICHLOROPHENYL)-N-(1-HYDROXY-2-METHYLPROPAN-2-YL)-2,2-DIMETHYL-3,4-DIHYDRO-2H-PYRANO[2,3-B]PYRIDINE-4-CARBOXAMIDE (ENANTIOMERIC MIX)]: the IC50 on Cannabinoid receptor 1 stood at 14 nM; at Cannabinoid receptor 2 it was 5150 nM.
Regarding `CC1(C)CC(=O)c2cc(-c3ccc(Cl)cc3)c(-c3ccc(Cl)cc3Cl)nc2O1`, the IC50 on Cannabinoid receptor 1 came to 47 nM; on Cannabinoid receptor 2, 1300 nM.
On to `CCC1(CC)CC(=O)c2cc(-c3ccc(Cl)cc3)c(-c3ccccc3Cl)nc2O1`, for which the IC50 at Cannabinoid receptor 1 came to 15 nM; on Cannabinoid receptor 2 it was 4200 nM.
For the compound `CC(C)C1CC(=O)c2cc(-c3ccc(Cl)cc3)c(-c3ccccc3Cl)nc2O1` (racemic), the values for the IC50 at Cannabinoid receptor 1 and on Cannabinoid receptor 2 were 3.2 nM and 3300 nM, respectively.
For `CC1(C)CC(NC(=O)C(C)(C)CO)c2cc(-c3ccc(Cl)cc3)c(-c3ccc(Cl)cc3Cl)nc2O1` (single isomer, unassigned; enantiomer 1) [N-(6-(4-CHLOROPHENYL)-7-(2,4-DICHLOROPHENYL)-2,2-DIMETHYL-3,4-DIHYDRO-2H-PYRANO[2,3-B]PYRIDIN-4-YL)-3-HYDROXY-2,2-DIMETHYLPROPANAMIDE (ENANTIOMERIC MIX)], the half-inhibitory concentration (IC50) on Cannabinoid receptor 1 turned out to be 2.1 nM; at Cannabinoid receptor 2 it was 570 nM.
As for `CC(C)(CO)NC(=O)C1CC(C)(C)Oc2nc(-c3ccc(Cl)cc3Cl)c(-c3ccc(Cl)cc3)cc21` (single isomer, unassigned; enantiomer 2) [6-(4-CHLOROPHENYL)-7-(2,4-DICHLOROPHENYL)-N-(1-HYDROXY-2-METHYLPROPAN-2-YL)-2,2-DIMETHYL-3,4-DIHYDRO-2H-PYRANO[2,3-B]PYRIDINE-4-CARBOXAMIDE (ENANTIOMERIC MIX)], the IC50 at Cannabinoid receptor 1 is 150 nM; at Cannabinoid receptor 2, 7450 nM.
The like results for `CC1(C)CC(C)(O)c2cc(-c3ccc(Cl)cc3)c(-c3ccc(Cl)cc3Cl)nc2O1` (racemic) were, in that order, 80 nM and 2920 nM.
For `CC(=O)NC1CC2(CCCCC2)Oc2nc(-c3ccccc3Cl)c(-c3ccc(Cl)cc3)cc21` (racemic) the same measures were 1.3 nM and 3900 nM.
For `O=C1CC2(CCSCC2)Oc2nc(-c3ccccc3Cl)c(-c3ccc(Cl)cc3)cc21` the same measures were 4.9 nM and 8000 nM.
In the case of `CC1(C)CC(NC(=O)CO)c2cc(-c3ccc(Cl)cc3)c(-c3ccccc3Cl)nc2O1` (single isomer, unassigned; enantiomer 1) [N-(7-(2-CHLOROPHENYL)-6-(4-CHLOROPHENYL)-2,2-DIMETHYL-3,4-DIHYDRO-2H-PYRANO[2,3-B]PYRIDIN-4-YL)-2-HYDROXYACETAMIDE (ENANTIOMERIC MIX)], the IC50 on Cannabinoid receptor 1 was 46 nM; on Cannabinoid receptor 2, above 2000 nM.
For `COC1CC(C)(C)Oc2nc(-c3ccc(Cl)cc3Cl)c(-c3ccc(Cl)cc3)cc21` (racemic) the same measures were 19 nM and 3790 nM.
`O=C1CC2(CCCCC2)Oc2nc(-c3ccccc3Cl)c(-c3ccc(Cl)cc3)cc21`: the IC50 on Cannabinoid receptor 1 came to 8.2 nM; on Cannabinoid receptor 2, 8300 nM.
For `O=C1CC2(CCCC2)Oc2nc(-c3ccccc3Cl)c(-c3ccc(Cl)cc3)cc21` the same measures were 23 nM and 3000 nM.
Take `CC1(C)CC(=O)c2cc(-c3ccc(Cl)cc3)c(-c3ccccc3Cl)nc2O1`: the IC50 on Cannabinoid receptor 1 was 120 nM; at Cannabinoid receptor 2, 2300 nM.
`CC(C)(O)C(=O)NC1CC2(CCCCC2)Oc2nc(-c3ccccc3Cl)c(-c3ccc(Cl)cc3)cc21` (single isomer, unassigned; enantiomer 2) [N-(7'-(2-CHLOROPHENYL)-6'-(4-CHLOROPHENYL)-3',4'-DIHYDROSPIRO[CYCLOHEXANE-1,2'-PYRANO[2,3-B]PYRIDINE]-4'-YL)-2-HYDROXY-2-METHYLPROPANAMIDE (ENANTIOMERIC MIX)]: the values for the concentration for half-maximal inhibition (IC50) on Cannabinoid receptor 1 and at Cannabinoid receptor 2 were 18 nM and 12000 nM, respectively.
In the case of `C[C@@H](O)C(=O)NC1CC2(CCCCC2)Oc2nc(-c3ccccc3Cl)c(-c3ccc(Cl)cc3)cc21` (stereo in doubt; 12h) [(2R)-N-(7'-(2-CHLOROPHENYL)-6'-(4-CHLOROPHENYL)-3',4'-DIHYDROSPIRO[CYCLOHEXANE-1,2'-PYRANO[2,3-B]PYRIDINE]-4'-YL)-2-HYDROXYPROPANAMIDE (ENANTIOMERIC MIX)], the IC50 on Cannabinoid receptor 1 amounted to 2 nM; at Cannabinoid receptor 2 it was 3400 nM.
For `CC1(C)CC(N)c2cc(-c3ccc(Cl)cc3)c(-c3ccc(Cl)cc3Cl)nc2O1` (racemic) the same measures were 110 nM and 7760 nM.
As for `CC1(C)CC(O)c2cc(-c3ccc(Cl)cc3)c(-c3ccc(Cl)cc3Cl)nc2O1` (racemic), the values for the IC50 on Cannabinoid receptor 1 and at Cannabinoid receptor 2 were 130 nM and 4950 nM, respectively.
For `CC1CC(=O)c2cc(-c3ccc(Cl)cc3)c(-c3ccccc3Cl)nc2O1` (racemic) the same measures were 21 nM and 6300 nM.
Consider `C[C@H](O)C(=O)NC1CC2(CCCCC2)Oc2nc(-c3ccccc3Cl)c(-c3ccc(Cl)cc3)cc21` (stereo in doubt; 12e) [(2S)-N-(7'-(2-CHLOROPHENYL)-6'-(4-CHLOROPHENYL)-3',4'-DIHYDROSPIRO[CYCLOHEXANE-1,2'-PYRANO[2,3-B]PYRIDINE]-4'-YL)-2-HYDROXYPROPANAMIDE (ENANTIOMERIC MIX)], for which the IC50 was 0.4 nM at Cannabinoid receptor 1 and 1800 nM on Cannabinoid receptor 2.
For `CC1(C)CC(C(N)=O)c2cc(-c3ccc(Cl)cc3)c(-c3ccc(Cl)cc3Cl)nc2O1` (single isomer, unassigned; enantiomer 1) [6-(4-CHLOROPHENYL)-7-(2,4-DICHLOROPHENYL)-2,2-DIMETHYL-3,4-DIHYDRO-2H-PYRANO[2,3-B]PYRIDINE-4-CARBOXAMIDE (ENANTIOMERIC MIX)], the IC50 came to 97 nM at Cannabinoid receptor 1 and 2480 nM on Cannabinoid receptor 2.
For the compound `C[C@H](O)C(=O)NC1CC2(CCCCC2)Oc2nc(-c3ccccc3Cl)c(-c3ccc(Cl)cc3)cc21` (stereo in doubt; 12f) [(2S)-N-(7'-(2-CHLOROPHENYL)-6'-(4-CHLOROPHENYL)-3',4'-DIHYDROSPIRO[CYCLOHEXANE-1,2'-PYRANO[2,3-B]PYRIDINE]-4'-YL)-2-HYDROXYPROPANAMIDE (ENANTIOMERIC MIX)], the IC50 on Cannabinoid receptor 1 was 13 nM; at Cannabinoid receptor 2, 10000 nM.
